Tested on: facial skin of humans
Assay: Retinoid irritation test: idebenone pre-treatment then prescription retinoid, clinician grading and TEWL
Assay type: in vivo
Procedure: In a test, idebenone was applied to the facial skin of humans. Two different test sites were setup whereby, one site was applied with idebenone twice a day for 2 weeks followed by a 2 week application period of a prescription retinoid (once a day, as prescribed). The remaining site was applied for 2 weeks just the prescription retinoid (once a day, as prescribed). Each test site was evaluated by a trained clinician for irritation and roughness using a 0 (none) to 4 (severe) scale pre and post retinoid treatment. Additionally, transepidermal water loss measurements (TEWL) were also made at the same time as visual evaluations.
FIG. 1 graphically depicts the results of the test.

[1] = facial skin, pre vs post 2 week retinoid treatment once a day, idebenone site pre-treated twice a day for 2 weeks

COC1=C(OC)C(=O)C(CCCCCCCCCCO)=C(C)C1=O [Idebenone, 6-(10-hydroxydecyl)-2,3-dimethoxy-5-methyl-1,4-benzoquinone]
increase in irritation (0 (none) to 4 (severe) scale, trained clinician) [1]: moderate to minimal increase
increase in roughness (0 (none) to 4 (severe) scale, trained clinician) [1]: moderate to minimal increase
increase in transepidermal water loss measurements (TEWL) [1]: moderate to minimal increase
irritation potential produced by the prescription retinoid (idebenone used as a pre-treatment for 2 weeks): significantly reduced
